Results taken from patent US20190135818A1 (SHANGHAI INSTITUTE OF MATERIA MEDICA, CHINESE ACADEMY OF …, priority 2016, published 2019).
Each block holds one compound with its values, some of them ahead of it.

Columns and labels:
[1] = test system: Human acute myeloid leukemia cell line KG1; assay: FGFR-dependent tumor cell proliferation inhibition activity test (CCK-8, 72 h); type: cell-based; details: Homo sapiens, KG-1, KG1 cells
Excerpt: Human acute myeloid leukemia cell line KG1 (FGFR1 fusion protein expressed in the cytoplasm, FGFR1-dependent tumor cell line) (ATCC, Cat. No. CCL-246), cell culture medium RPMI-1640 (Corning Cellgro, No. 10-040-CVR), fetal bovine serum (Life
Technologies, Cat. No. 10099-141) was purchased from the company; CCK-8 cell counting kit (DOJINDO, Cat. No. FK808). Adjustable wavelength microplate reader (Molecular Device, Cat. No. SpectraMax 190).
The inhibitory effect of the compound on KG1 proliferation was detected by CCK-8 Cell Counting Kit (Dojindo): Logarithmic growth phase cells were seeded in 96-well culture plate in appropriate density, 90 ul for each well. After cultured overnight, different concentrations of drugs were added and incubated for 72 h, while solvent control well was set (negative control). After the cells were treated by the compound for 72 h, 10 μL of CCK-8 reagent was added to each well. After incubated for 2-4 hours in a 37 □ incubator, the plate was read with SpectraMax 190 microplate reader at wavelength 450 nm.
The inhibition rate of compounds against cell proliferation is calculated by the following formula:
Inhibition rate (%)=(OD negative control well-OD administration well)/OD negative control well×100%.
(§1) The IC50 values were obtained by four-parameter regression analysis using the software supplied with the microplate reader.

[2] = test system: human lung cancer NCI-H1581 transplanted tumor; assay: Tumor growth inhibition in tumor-bearing mice (subcutaneously transplanted tumor); type: in vivo, BALB/cA nude mice; details: for T/C (%): 13th day; for TV (mm^3, mean ± SD) d0: d0, before dosing
Experimental: Before using, the compound was diluted with 5% Tween80 in normal saline to the desired concentration (light yellow suspension), and was prepared once a week.
Before using, the compound was diluted with 1% Tween 80 in normal saline to the desired concentration (white suspension), and was prepared once a week.
The cell strain was inoculated in the right axilla of the nude mice, and the amount of cells inoculated was 5×10^6/animal to form transplanted tumor, and passaged in vivo in nude mice by 1 generation before use.
The tumor tissue in the vigorous growth period was cut into 1.5 mm^3, and inoculated subcutaneously in the right axilla of the nude mice under aseptic conditions. The diameter of the subcutaneously transplanted in a nude mice was measured with a vernier caliper, and the animals were randomly grouped when the average volume of tumors was about 220 mm^3. […] The solvent control group was given an equal amount of normal saline. The diameter of the transplanted tumor was measured twice a week during the entire experiment, and the body weights of the mice were weighed. The calculation formula of tumor volume (TV) is: TV=1/2×a×b2, where a and b respectively represent the length and width of the tumor. The relative tumor volume (RTV) was calculated based on the measured results and the formula was: RTV=Vt/V0. Where V0 is the tumor volume measured before grouping and dosing (d0), and Vt is the tumor volume at each measurement.

FGFR1 = target: T1, FGFR1 (Homo sapiens, UniProt P11362); assay: FGFR kinase inhibitory activity experiment (ELISA, Poly(Glu,Tyr)4:1 substrate); type: biochemical; details: kinase recombinant protein FGFR1, ATP 5 μM
T1 construct: The reaction was initiated by addition of FGFR kinase domain recombinant protein diluted with 49 μL of reaction buffer; purchased Millipore 14-482
T1 sequence (P11362 478-767 limits assumed): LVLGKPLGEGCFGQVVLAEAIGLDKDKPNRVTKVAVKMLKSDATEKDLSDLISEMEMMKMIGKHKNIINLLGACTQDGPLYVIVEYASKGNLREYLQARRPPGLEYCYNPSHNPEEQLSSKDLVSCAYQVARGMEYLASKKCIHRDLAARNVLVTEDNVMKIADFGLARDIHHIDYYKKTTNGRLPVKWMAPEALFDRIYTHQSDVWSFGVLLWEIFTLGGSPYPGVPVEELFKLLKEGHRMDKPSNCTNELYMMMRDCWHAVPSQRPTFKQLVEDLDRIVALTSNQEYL
Experimental: Precision electronic balance (Sartotius, Cat. No. BP210D), adjustable wavelength microplate reader (Molecular Device, Cat. No. SpectraMax 190).
After the liquid was removed from the wells, the plate was washed for three times with 200 μL/well of T-PBS (PBS containing 0.1% Tween-20) for 5 minutes each time. The enzyme plate was dried at 37° C. in a dryer for 1-2 hours.
50 μL ATP solution diluted with reaction buffer (50 mM HEPES pH 7.4, 50 mM MgCl2, 0.5 mM MnCl2, 0.2 mM Na3VO4, 1 mM DTT) was added into each well at a 5 μM final concentration. The compounds were diluted to appropriate concentration in DMSO, 1 μL/well or containing the corresponding concentrations of DMSO (negative control wells). The reaction was initiated by addition of FGFR kinase domain recombinant protein diluted with 49 μL of reaction buffer. Two control wells without enzyme were set in each experiment. The plate was placed on a shaker (100 rpm) at 37° C. for 1 hour. The plate was washed with T-PBS for three times. 100 μL/well of primary antibody PY99 dilution was added, and incubated at 37° C. for 0.5 hour on a shaker (100 rpm). The plate was washed with T-PBS for three times. 100 μL/well of horseradish peroxidase-labeled secondary anti-goat anti-mouse IgG dilution was added and incubated at 37° C. for 0.5 hour on a shaker (100 rpm). The plate was washed with T-PBS for three times. 100 μL/well of 2 mg/mL OPD coloration solution (diluted with 0.1 M citric acid-sodium citrate buffer containing 0.03% H2O2 (pH=5.4)) was added, and incubated in darkness for 1-10 minutes at 25° C. The reaction was quenched with 50 μL/well 2M H2SO4, and read at 490 nm using a tunable microplate microplate reader SPECTRA MAX 190.
The inhibition ratio of the sample was determined by the following formula: […]
as §1

[3] = AZD4547 12.5 mg/kg po qd/13, d13

- IC50 [1]: ≤ 100 nM
Compound: Cc1c(-c2c3c(N)n[nH]c(=O)c3nn2-c2ccc(NC(=O)/C=C/CN(C)C)cc2)oc2ccc(Cl)cc12 [Compound A26, (2E)-N-{4-[4-amino-3-(5-chloro-3-methyl-1-benzofuran-2-yl)-7-carbonyl-6,7-dihydro-2H-pyrazolo[3,4-d]pyridazin-2-yl]phenyl}-4-(dimethylamino)but-2-enamide]
- growth of subcutaneously transplanted tumors (in words) ([2]; 50 mg/kg and 10 mg/kg intraperitoneally once a day for 13 days): significantly inhibited
- T/C (%) ([2]; A26 10 mg/kg ip qd/13): 19.88%
- body weight (g) d0 ([2]; A26 10 mg/kg ip qd/13): 18.4 g
- TV (mm^3, mean ± SD) d0 ([2]; A26 10 mg/kg ip qd/13): 161 ± 71 mm^3
- RTV (mean ± SD) ([2]; A26 10 mg/kg ip qd/13, d13): 4.17 ± 2.49
- TV (mm^3, mean ± SD) d13 ([2]; A26 10 mg/kg ip qd/13, d13): 621 ± 289 mm^3
- body weight (g) d13 ([2]; A26 10 mg/kg ip qd/13, d13): 21.3 g
- T/C (%) ([2]; A26 50 mg/kg ip qd/13): 2.20%
- body weight (g) d0 ([2]; A26 50 mg/kg ip qd/13): 18.2 g
- TV (mm^3, mean ± SD) d0 ([2]; A26 50 mg/kg ip qd/13): 159 ± 69 mm^3
- RTV (mean ± SD) ([2]; A26 50 mg/kg ip qd/13, d13): 0.46 ± 0.19
- TV (mm^3, mean ± SD) d13 ([2]; A26 50 mg/kg ip qd/13, d13): 66 ± 21 mm^3

Compound: AZD4547 [reference compound]
- growth of subcutaneously transplanted tumors (in words) ([2]; 12.5 mg/kg orally once a day for 13 days): partially inhibited
- T/C (%) ([2]; AZD4547 12.5 mg/kg po qd/13): 16.39%
- TV (mm^3, mean ± SD) d0 ([2]; AZD4547 12.5 mg/kg po qd/13): 153 ± 50 mm^3
- RTV (mean ± SD) [2, 3]: 3.43 ± 2.61
- TV (mm^3, mean ± SD) d13 [2, 3]: 517 ± 392 mm^3

- IC50 [1]: 100 to 1000 nM
- IC50 (FGFR1): < 100 nM
Compound: CCC(=O)N1CCC(n2nc3c(=O)[nH]nc(N)c3c2-c2oc3ccc(C)cc3c2C)CC1 [Compound A10, 4-amino-3-(3,5-dimethyl-1-benzofuran-2-yl)-2-(1-propionylpiperidin-4-yl)-2,6-dihydro-7H-pyrazolo[3,4-d]pyridazin-7-one]

- IC50 [1]: ≤ 100 nM
- IC50 (FGFR1): < 100 nM
Compound: CCN1CCC(n2nc3c(=O)[nH]nc(N)c3c2-c2oc3ccc(C)cc3c2C)CC1 [Compound A24, 4-amino-3-(3,5-dimethyl-1-benzofuran-2-yl)-2-(1-ethylpiperidin-4-yl)-2,6-dihy-dro-7H-pyrazolo[3,4-d]pyridazin-7-one]
